The target in data set [1] is T1, ABCG2 (Homo sapiens, UniProt Q9UNQ0).
T1 sequence (Q9UNQ0 1-655): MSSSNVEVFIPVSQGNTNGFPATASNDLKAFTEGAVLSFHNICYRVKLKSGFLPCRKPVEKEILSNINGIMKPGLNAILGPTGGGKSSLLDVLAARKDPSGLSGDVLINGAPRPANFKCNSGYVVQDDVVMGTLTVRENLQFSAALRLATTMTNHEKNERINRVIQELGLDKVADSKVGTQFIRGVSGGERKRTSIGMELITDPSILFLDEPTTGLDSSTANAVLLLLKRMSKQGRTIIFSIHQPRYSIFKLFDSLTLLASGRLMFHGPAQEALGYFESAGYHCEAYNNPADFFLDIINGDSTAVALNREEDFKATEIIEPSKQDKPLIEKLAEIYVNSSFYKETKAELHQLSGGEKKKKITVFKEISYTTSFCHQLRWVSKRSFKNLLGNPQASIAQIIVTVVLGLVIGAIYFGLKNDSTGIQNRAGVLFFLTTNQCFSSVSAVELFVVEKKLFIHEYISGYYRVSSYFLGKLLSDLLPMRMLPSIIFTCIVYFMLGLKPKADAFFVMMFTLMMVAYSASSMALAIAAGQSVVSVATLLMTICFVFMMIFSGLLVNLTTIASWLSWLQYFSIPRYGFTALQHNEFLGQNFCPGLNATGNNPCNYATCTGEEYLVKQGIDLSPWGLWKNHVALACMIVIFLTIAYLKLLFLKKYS
Description: ABCG2 ATPase stimulation in membrane vesicles ([…] of basal); supported by inhibition of [3H]-mitoxantrone efflux in NCI-H460/MX20 cells at […]. The data set is classed as biochemical. Further details: membrane vesicles with ABCG2 (PREDEASY ATPase kit).

Data set [2] addresses T1, ABCG2.

pEC50: −log10 of the molar value.

One may read the pEC50 as the negative decadic logarithm of the EC50, by convention in mol/L. A high value points to a small EC50. For `c1cn2cc(-c3ccc4cn[nH]c4c3)nc(Nc3ccc(N4CCOCC4)cc3)c2n1` [GS-9973], the pEC50 in data set [1] is 6.38.
As to `O=C1c2c(O)ccc(O)c2C(=O)c2c(NCCNCCO)ccc(NCCNCCO)c21` [mitoxantrone], the “radiolabelled substrate accumulation and efflux, parental vs ABCG2-overexpressin” value in data set [2] was “proving that the efflux of [^3H]-mitoxantrone was mediated by the ABCG2 transporter”.
